Test results taken from patent US7405305B2 (Eli Lilly and Company, priority 2002, dated 2008).
Structures can show the parent of a compound that is named as a salt. Where two headings read alike, the source gives them in different places.

Key:
recombinant human GSK-3β = recombinant human GSK-3β (Homo sapiens, UniProt P49841); test: Kinase Inhibition Assay (GSK-3β, 33P phosphoCREB peptide filter assay); format: biochemical
Source text: An important in vitro test is the ability of the compound to inhibit the activity of the GSK-3β enzyme. This test is done according to a standard protocol. (See Fiol, et al, A Secondary Phosphorylation of CREB^341 at Ser^129 Is Required for the cAMP-Mediated Control of Gene Expression: A Role for Glycogen Synthase Kinase-3 in the Control of Gene Expression, J. Biol. Chem., 269, 32187-32193 (1994)).
The catalysis of the reaction:
(pS)YR+AT^33P→KRREIL(^33pS)RRP(pS)YR [measured]+ADP by GSK-3β is measured in a reaction mixture comprised of the following: 50 mM MOPS (4-morpholinepropanesulfonic acid) pH 7.0; 50 μM phosphoCREB peptide; 50 μM ATP; 0.5 μCi ATP[γ-^33P]; 12.5 mM MgCl2; 0.03% Triton-X; 4% DMSO; and 1 nM recombinant human GSK-3β. The reaction is initiated by the addition of enzyme. The final reaction volume is 100 μL. The reaction is allowed to proceed for 60 minutes at room temperature and is stopped by the addition of 75 μL of 10% phosphoric acid. To capture KRREIL(^33pS)RRP(pS)YR formed in the reaction and to remove unreacted AT^33P, 160 μL of the stopped reaction mixture is transferred to a pre-wetted (0.75% phosphoric acid) phosphocellulose microfiltration plate [Millipore Cat.# MAPH NOB 50] and after 90 minutes incubation on the plate, the stopped reaction mixture is passed through the filter using a Titertek Map Extractor. The filter containing the trapped KRREIL(^33pS)RRP(pS)YR is washed with 220 μL of 0.75% phosphoric acid. Filter plates are blotted to remove droplets from the underdrain. The underdrain is removed from the filter and the filter is placed into a clear plate liner (Wallac, Inc.). Added to each well is 100 μL of Microscint 20 (Packard).
After standing at least six hours (preferably overnight), the plates are counted in a Trilux scintillation counter (Wallac, Inc.). The ability of a compound to inhibit GSK-3β is determined by including various concentrations of the compound in the reaction mixture and comparing the signal produced to the signal produced in a reaction mixture without the compound.
The test yields the molar concentration of the test compound that produces a 50% inhibition of the GSK-3β enzyme activity.

3T3-L1 adipocytes = test: Glycogen Synthesis Assay (14C-glucose incorporation into glycogen); format: cell-based; conditions: 1 μM compound
Protocol: This test measures the increase in the production of glycogen both in the absence and in the presence of insulin in the cells. This test is done according to standard protocols. (See Berger and Hayes, A High-Capacity assay for Activators of Glucose Incorporation into Glycogen in L6 Muscle Cells, Analytical Biochemistry, 261, 159-163 (1998).)
Briefly, 3T3-L1 adipocytes are plated and differentiated in a 96-well plate at 25,000 cells/well. The plate is serum-starved overnight. The serum-starvation media is removed just prior to assay, and the plate is washed with 100 μl/well Krebs-Ringer-Hepes buffer (KRBH). The KRBH is removed and 50 μl of compound (twice the amount of the final concentration) is added to the assay plate. Next, 50 μl of ^14C-labeled glucose is added to the assay plate at 0.1 μCi/well. The plate is then incubated at 37° C. for 2 hours.
The plate is washed with 100 μL/well of PBS, and the cells are lysed with 75 μl/well of 1N NaOH. The plate is heated at 70° C. for 20 minutes. An aliquot (50 μl) of the supernatant is transferred from the assay plate to a Millipore FC filter plate containing 120 μl/well of ice-cold ethanol. The plate is allowed to stand for 2 hours at 4° C. to facilitate precipitation. The ethanol is removed from the filter plate via a vacuum manifold, and the plate is washed with 100 μL/well of ice-cold 70% ethanol. The plate was allowed to dry overnight, and 75 μl/well of Microscint-20 was added to the filter plate. The plate was then counted on a Packard Topcount.

[1] = tested on: β-catenin in AG04160C FAD lymphoblast cells; test: β-Catenin Protection Assay; format: cell-based, human; conditions: fold induction over basal β-catenin, 24 hours, concentration not given
Protocol: This test measures the fold induction over basal β-catenin and is performed according to standard protocols (Hedgepeth, C. M., Dev. Biol. 185, 82-91 (1997); Chen, G., et al., J. Neurochem., 72, 1327-1330 (1999); Hong, M., et al., J. Biol. Chem., 272, 25326-25332 (1997)).
The human familial Alzheimer's disease (FAD) presenilin-1 AG04160C lymphoblast cell line (Coriell Cell Repository, Camden, N.J.) is maintained as a suspension culture in RPMI 1640 (with L-Glutamine) supplemented with 10% fetal bovine serum and 1% penicillin-streptomycin in an atmosphere of 37° C. and 5% CO2. The AG04160C FAD lymphoblast cells are seeded in T-25 cm^2 flasks at 2.5 to 5.0×10^5 cells/ml in a total volume of 10 ml. Following 16-18 hours of growth, cells are treated with compound at concentrations of 0.1 μM, 1.0 μM, and 10 μM, and are incubated for an additional 24 hours. […] The total protein concentration in whole cell lysate samples is determined using the BCA method (Pierce). […] The β-catenin accumulation/stability is then quantified following densitometry analysis of protein bands. […]

ZDF rats = test: Glucose Lowering Assay; format: in vivo, rat; conditions: oral gavage once daily, relative to insulin
Protocol: This test measures the effect of the test compound on blood glucose and triglycerides relative to insulin. (See Eldar-Finkleman, et al, Expression and Characterization of Glycogen Synthase Kinase-3 Mutants and Their Effect on Glycogen Synthase Activity in Intact Cells, Proc. Nat. Acad. Sci., 93, 10228-10233 (1996).)
ZDF rats (Charles River, Inc.) at six weeks of age are housed individually with free access to food and water. Rats are dosed with drug once daily by oral gavage, with the compound prepared as a suspension in 1% caboxymethylcellusolve/0.25% Tween 80 (CMC-Tween). Vehicle controls are dosed with CMC-Tween only. The duration of study varied according to the protocol used, with acute dosing studies lasting one day and dose escalation studies lasting seven days. Body weights and food consumption measurements are also performed once a week for seven-day studies. For measurement of blood glucose and triglycerides, blood samples of 600 μl are collected by the tail snip method. (The tail snip for blood sampling is as follows: 1-2 mm of the tail is snipped with a sharp blade. After collection of blood, a scab forms at the site of wound. This scab is removed and the tail is gently massaged for other subsequent bleedings.) Glucose and triglyceride determinations are performed on a Hitachi 912 metabolic analyzer, with a kit utilizing the Trinder method. […]

[2] = Table II, 1 nM recombinant human GSK-3β, 50 μM ATP, 60 minutes at room temperature, read-out: GSK-3β IC50

recombinant human GSK-3β, sequence (P49841 whole entry): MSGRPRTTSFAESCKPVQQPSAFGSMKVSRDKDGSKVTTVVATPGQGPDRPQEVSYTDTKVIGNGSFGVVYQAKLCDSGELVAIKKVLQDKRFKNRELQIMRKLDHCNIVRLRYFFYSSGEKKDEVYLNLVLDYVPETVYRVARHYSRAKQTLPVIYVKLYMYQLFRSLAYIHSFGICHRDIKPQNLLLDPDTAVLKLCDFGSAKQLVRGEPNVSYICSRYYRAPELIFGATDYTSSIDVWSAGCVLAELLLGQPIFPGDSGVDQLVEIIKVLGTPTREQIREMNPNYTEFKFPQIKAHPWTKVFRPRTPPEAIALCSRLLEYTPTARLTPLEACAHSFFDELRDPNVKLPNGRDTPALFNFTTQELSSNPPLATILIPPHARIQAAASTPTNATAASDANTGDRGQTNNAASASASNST

Structure (SMILES)	IC50 (recombinant human GSK-3β; [2]) [nM]	further results
COc1cc(C2=C(c3cn(CCN4CCN(C)CC4)c4ccccc34)C(=O)NC2=O)c2occc2c1 [Example 100, 3-(5-Methoxybenzofur-7-yl)-4-{1-[2-(4-methylpiperazin-1-yl)ethyl]-1H-indol-3-yl}pyrrole-2,5-dione]		IC50 (recombinant human GSK-3β): 143 nM
CCN(CC)CCCOc1ccc2c(c1)c(C1=C(c3cc(F)cc4ccoc34)C(=O)NC1=O)cn2C(C)C [Example 114, 3-(5-Fluorobenzofur-7-yl)-4-[5-(3-diethylaminopropoxy)-1-isopropyl-1H-indol-3-yl]pyrrole-2,5-dione hydrochloride]	133	
Cl.Cn1cc(C2=C(c3cccc4ccoc34)C(=O)NC2=O)c2cc(OCCNCC3CC3)ccc21 [Example 119, 3-(Benzofur-7-yl)-4-{5-[2-(cyclopropylmethylamino)ethoxy]-1-methyl-1H-indol-3-yl}pyrrole-2,5-dione hydrochloride]	9.5	Glycogen Synthesis (fold increase at 1 μM) in absence of insulin (3T3-L1 adipocytes): 2.82× in absence of fold; Glycogen Synthesis (fold increase at 1 μM) in presence of insulin (3T3-L1 adipocytes): 2.13× in presence of fold; β-Catenin (fold increase) [1]: 4.9× fold
O=C1NC(=O)C(c2cccc3ccoc23)=C1c1cn(C2CCNCC2)c2ccccc12 [Example 139, 3-(Benzofur-7-yl)-4-[1-(piperidin-4-yl)-1H-indol-3-yl]pyrrole-2,5-dione]	5.74	
CC(C)CN[C@H]1CC[C@H](n2cc(C3=C(c4cccc5ccoc45)C(=O)NC3=O)c3c(F)cccc32)CC1 [Example 150, 3-(Benzofur-7-yl)-4-[4-fluoro-1-(4-trans-isobutylaminocyclohexyl)-1H-indol-3-yl]pyrrole-2,5-dione hydrochloride]	10.6	Glycogen Synthesis (fold increase at 1 μM) in absence of insulin (3T3-L1 adipocytes): 2.97× in absence of fold; Glycogen Synthesis (fold increase at 1 μM) in presence of insulin (3T3-L1 adipocytes): 3.92× in presence of fold; Glucose Lowering (percent increase vs. effect of insulin) (ZDF rats): 58%

Now from value to compound, other results behind:

IC50 (recombinant human GSK-3β; [2]) [nM]	Structure (SMILES)	further results
176	Cn1ccc2c(C3=C(c4cn(CCCO)c5ccccc45)C(=O)NC3=O)cccc21 [Example 1, 3-(1-Methyl-1H-indol-4-yl)-4-[1-(3-hydroxypropyl)-1H-indol-3-yl]pyrrole-2,5-dione]	
125	CCN(CC)CCCc1cccc2c(C3=C(c4cccc5ccoc45)C(=O)NC3=O)cn(C)c12 [Example 102, 3-(Benzofur-7-yl)-4-[7-(3-diethylaminopropyl)-1-methyl-1H-indol-3-yl]pyrrole-2,5-dione]	
70.2	COc1ccc(C2=C(c3cn(CCCCN(C)C)c4ccccc34)C(=O)NC2=O)c2occc12 [Example 118]	
55.2	Cn1cc(C2=C(c3ccc(O)c4ccoc34)C(=O)NC2=O)c2ccccc21 [Example 135, 3-(4-Hydroxybenzofur-7-yl)-4-(1-methyl-1H-indol-3-yl)pyrrole-2,5-dione]	
